# Reference: US20250236892A1, “Inhibition of NHEJ, MMEJ, and 53BP1 Promotes High Levels of HDR” (Integrated DNA Technologies, Inc., priority 2024, published 2025)
# What was measured:
# [1] = tested on: HEK293 cells; experiment: HDR insertion of a 6-nt EcoRI sequence at SpCas9 RNP induced DSBs with ssDNA donor, repair events measured by NGS; format: cell-based
# Protocol: FIG. 1 depicts inhibition of NHEJ, MMEJ, and 53BP1 leads to high levels of HDR at SpCas9 induced DSBs. HEK293 cells were treated with Cas9 RNP (2 μM) targeting 5 different sites (FIG. 1A: AADACL3; FIG. 1B: ANKRD50; FIG. 1C: ABCD4: FIG. 1D: AR; FIG. 1E: AKAP6) in the genome alongside ssDNA donor template with or without Ubv-A protein (25 μM). Cells were then plated in media containing no DMSO, DMSO control, ART, V2, or ART+V2 for 24 hours before exchanging for fresh media (see Methods for concentrations). The graphs show the percent of each repair event under each condition measured by NGS with error bars indicating SD from three replicates. Likely MMEJ deletions are determined based on the presence of microhomology of two nucleotides or greater at the ends of the deletion.
# For HDR using ssDNA templates in HEK293 cells genome editing was mediated via IDT Alt-R Cas9 ribonucleoprotein, IDT Alt-R AsCas12a Ultra, or EURECA-V (a ErCas12a variant) (RNP) complexes delivered by Lonza nucleofection in concert with single-stranded oligodeoxynucleotide (ssODN) HDR repair templates. The specific repair event was the insertion of a 6-nt EcoRI sequence (5′-GAATTC-3′) at either the Cas9, AsCas12a, or ErCas12a cut site. The sgRNAs for Cas9 and crRNAs for AsCas12a corresponding to the protospacer sequences listed in Table 2 were ordered from IDT (Table 2). The HDR donor templates for Cas9 editing contain 40-nt homology arms (HA) flanking a 6 nt EcoR1 cut site insert. The HDR donor templates for AsCas12a were similar except for slightly different homology arm lengths (40 nt 5′ HA and 45 nt 3′ HA)^66. The HDR donor sequences listed in Table 3 were ordered from IDT as Alt-R HDR donor oligos (Table 3). The repair templates are homologous to the non-targeting strand of dsDNA, where targeting/non-targeting is defined with respect to the guide RNA sequence and the presence of the NGG/TTTV PAM sequence identifying the non-target strand. […]
# [2] = tested on: HEK293 cells; experiment: CAR knock-in at the TRAC locus with dsDNA Alt-R HDR donor block, PCR and Fragment Analyzer; format: cell-based; settings: enhancer used alone; ART558 10 μM, V2 1 μM, Ubv-A protein 25 μM, Ubv-A mRNA 25 nM; Cas9 RNP or Cas9 mRNA
# Protocol: FIG. 3A depicts percent CAR knock-in (KI) at the TRAC locus in HEK293 cells treated with 1 μg dsDNA Alt-R HDR donor block, 2 μM Cas9 RNP, and either 25 μM tagless Ubv-A protein or 25 nM Ubv-A mRNA or no Ubv-A and incubated in media containing DMSO (no enhancer), MMEJ inhibitor ART558 (ART, 10 μM), NHEJ inhibitor Alt-R HDR enhancer V2 (V2, 1 μM), or both ART558 and V2. Percent KI was calculated using PCR followed by analysis using an Agilent Fragment Analyzer and data processing using PROSize 3.0 software to calculate the relative molar concentrations between wild-type and edited products. Error bars indicate SD, n=3. […]
# HEK293 cells were harvested and resuspended in SF Cell Line Nucleofector Solution (Lonza, V4SC-2096) at a concentration of approximately 16,500 cells/μl and 18 μl of this cell suspension was used for each nucleofection. […] To quantify knock-in percentages, genomic DNA flanking the sgRNA target site was amplified by PCR, PCR products were separated on a Fragment Analyzer (Agilent Technologies), and the percentage of edited and unedited alleles was calculated using PROSize 3.0 software.
# Recent publications have shown that inhibition of MMEJ through inhibition of DNA polymerase theta using small molecule inhibitors increases the rate of HDR and reduces undesired edits^16,27. […] Genomic DNA was isolated approximately 48 hours after delivery and editing was analyzed by NGS. […]
structure (smiles),measurement,setting,value
"Cc1cccc(N(C)C(=O)[C@@H]2[C@H](O)CCN2c2nc(C)cc(C(F)(F)F)c2C#N)c1 [ART558, reference compound]",HDR,"[1]; 10 μM ART558 alone in media 24 hours, 2 μM Cas9 RNP, 2 μM ssDNA, 5 sites",minimal boost in HDR
same,"HDR, site with largest increase","[1]; 10 μM ART558 alone, AKAP6 site, highest level of likely MMEJ repair events in media only condition",AKAP6
same,rates of HDR and likely MMEJ events,"[1]; 10 μM ART558 in combination with 1 μM V2, compared with ART558 plus Ubv-A",the effect is less pronounced
same,HDR (CAR knock-in),[2],minimal effect on HDR
